Molecular target: T1, human liver GK (Homo sapiens, UniProt P35557)
T1 construct: GST (glutathione S-transferase) (N); made in house; host or cells: E. coli
T1 sequence (P35557 1-466 isoform P35557-2): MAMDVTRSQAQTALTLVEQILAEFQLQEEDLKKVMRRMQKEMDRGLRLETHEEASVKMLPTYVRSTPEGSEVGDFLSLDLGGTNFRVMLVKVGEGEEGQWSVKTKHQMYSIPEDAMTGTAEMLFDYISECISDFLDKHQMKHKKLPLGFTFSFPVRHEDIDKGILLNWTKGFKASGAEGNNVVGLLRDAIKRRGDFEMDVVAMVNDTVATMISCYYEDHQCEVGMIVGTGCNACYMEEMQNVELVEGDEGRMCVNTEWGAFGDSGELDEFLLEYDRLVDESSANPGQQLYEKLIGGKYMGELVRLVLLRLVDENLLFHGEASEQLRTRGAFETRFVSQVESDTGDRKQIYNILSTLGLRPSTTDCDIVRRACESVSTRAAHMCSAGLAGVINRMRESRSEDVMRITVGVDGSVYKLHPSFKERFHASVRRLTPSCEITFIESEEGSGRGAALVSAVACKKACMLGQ
Assay: GK activation test
Assay type: biochemical
Details: test compound concentration needed to activate 50% of maximum activation ability; 4 mM 14C-labeled glucose, 2 mM ATP, room temperature, 20 minutes
Outline: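 GST-tagged human liver GK from E. coli (0.24 μg/well) with 4 mM 14C-glucose, 2 mM ATP in Hepes-KOH pH 7.1, KCl, MgCl2, DTT, 1% DMSO, 20 min room temperature. Labeled glucose 6-phosphate captured on anion resin, eluted and counted. EC50 = concentration giving half of maximal activation.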

Compound | EC50 [nM]
O=C1CC[C@H](/C=C(\c2ccc(CC(F)(F)F)cc2)c2ccc(C3CC3)c(=O)[nH]2)N1 [Example 4-272, 3-Cyclopropyl-6-{(E)-2-[(2R)-5-oxopyrrolidin-2-yl]-1-[4-(2,2,2-trifluoroethyl)phenyl]ethenyl}pyridin-2(1H)-one] | 10 to 500
O=C1CC[C@H](/C=C(\c2ccc(C(F)F)cc2)c2ccc(C3CC3)c(=O)[nH]2)N1 [Example 4-273, 3-Cyclopropyl-6-{(E)-1-[4-(difluoromethyl)phenyl]-2-[(2R)-5-oxopyrrolidin-2-yl]ethenyl}pyridin-2(1H)-one] | 10 to 500
COc1cc(F)c(/C(=C\[C@H]2CCC(=O)N2)c2ccc(C3CC3)c(=O)[nH]2)cc1Cl [Example 4-274, 6-{(E)-1-(5-Chloro-2-fluoro-4-methoxyphenyl)-2-[(2R)-5-oxopyrrolidin-2-yl]ethenyl}-3-cyclopropylpyridin-2(1H)-one] | 10 to 500
CC(C)Oc1ccc(/C(=C\[C@H]2CCC(=O)N2)c2ccc(C3CC3)c(=O)[nH]2)cc1F [Example 4-275, 3-Cyclopropyl-6-{(E)-1-[3-fluoro-4-(propan-2-yloxy)phenyl]-2-[(2R)-5-oxopyrrolidin-2-yl]ethenyl}pyridin-2(1H)-one] | 10 to 500
CC(C)Oc1ccc(/C(=C\[C@H]2CCC(=O)N2)c2ccc(C3CC3)c(=O)[nH]2)cc1 [Example 4-276, 3-Cyclopropyl-6-{(E)-2-[(2R)-5-oxopyrrolidin-2-yl]-1-[4-(propan-2-yloxy)phenyl]ethenyl}pyridin-2(1H)-one] | 10 to 500
O=C1CC[C@H](/C=C(\c2ccc(CO)cc2)c2ccc(Cl)c(=O)[nH]2)N1 [Example 4-277, 3-Chloro-6-{(E)-1-[4-(hydroxymethyl)phenyl]-2-[(2R)-5-oxopyrrolidin-2-yl]ethenyl}pyridin-2(1H)-one] | 3000 to 10000
CCCOc1ccc(/C(=C\[C@H]2CCC(=O)N2)c2ccc(C3CC3)c(=O)[nH]2)cc1 [Example 4-279, 3-Cyclopropyl-6-[(E)-2-[(2R)-5-oxopyrrolidin-2-yl]-1-(4-propoxyphenyl)ethenyl]pyridin-2(1H)-one] | 10 to 500
CCCOc1ccc(/C(=C\[C@H]2CCC(=O)N2)c2ccc(C3CC3)c(=O)[nH]2)cc1Cl [Example 4-280, 6-{(E)-1-(3-Chloro-4-propoxyphenyl)-2-[(2R)-5-oxopyrrolidin-2-yl]ethenyl}-3-cyclopropylpyridin-2(1H)-one] | 10 to 500
O=C1CC[C@H](/C=C(\c2ccc(OC(F)F)c(Cl)c2)c2ccc(C3CC3)c(=O)[nH]2)N1 [Example 4-281, 6-{(E)-1-[3-Chloro-4-(difluoromethoxy)phenyl]-2-[(2R)-5-oxopyrrolidin-2-yl]ethenyl}-3-cyclopropylpyridin-2(1H)-one] | 10 to 500
CCOc1ccc(/C(=C\[C@H]2CCC(=O)N2)c2ccc(C3CC3)c(=O)[nH]2)c(F)c1F [Example 4-282, 3-Cyclopropyl-6-{(E)-1-(4-ethoxy-2,3-difluorophenyl)-2-[(2R)-5-oxopyrrolidin-2-yl]ethenyl}pyridin-2(1H)-one] | 10 to 500
O=C1CC[C@H](/C=C(\c2ccc(OC3CCCC3)cc2)c2ccc(C3CC3)c(=O)[nH]2)N1 [Example 4-283, 6-{(E)-1-[4-(Cyclopentyloxy)phenyl]-2-[(2R)-5-oxopyrrolidin-2-yl]ethenyl}-3-cyclopropylpyridin-2(1H)-one] | 10 to 500
CCOc1ccc(/C(=C\[C@H]2CCC(=O)N2)c2ccc(C3CC3)c(=O)[nH]2)cc1F [Example 4-284, 3-Cyclopropyl-6-{(E)-1-(4-ethoxy-3-fluorophenyl)-2-[(2R)-5-oxopyrrolidin-2-yl]ethenyl}pyridin-2(1H)-one] | 10 to 500
N#Cc1ccc(/C(=C\[C@H]2CCC(=O)N2)c2ccc(C3CC3)c(=O)[nH]2)cc1 [Example 4-285, 4-{(E)-1-(5-Cyclopropyl-6-oxo-1,6-dihydropyridin-2-yl)-2-[(2R)-5-oxopyrrolidin-2-yl]ethenyl}benzonitrile] | 500 to 3000
CCOc1ccc(/C(=C\[C@H]2CCC(=O)N2)c2ccc(C3CC3)c(=O)[nH]2)c(Cl)c1 [Example 4-286, 6-{(E)-1-(2-Chloro-4-ethoxyphenyl)-2-[(2R)-5-oxopyrrolidin-2-yl]ethenyl}-3-cyclopropylpyridin-2(1H)-one] | 10 to 500
O=C1CC[C@H](/C=C(\c2ccc(OCCF)cc2)c2ccc(C3CC3)c(=O)[nH]2)N1 [Example 4-287, 3-Cyclopropyl-6-{(E)-1-[4-(2-fluoroethoxy)phenyl]-2-[(2R)-5-oxopyrrolidin-2-yl]ethenyl}pyridin-2(1H)-one] | 10 to 500
N#Cc1cc(/C(=C\[C@H]2CCC(=O)N2)c2ccc(C3CC3)c(=O)[nH]2)ccc1F [Example 4-288, 5-{(E)-1-(5-Cyclopropyl-6-oxo-1,6-dihydropyridin-2-yl)-2-[(2R)-5-oxopyrrolidin-2-yl]ethenyl}-2-fluorobenzonitrile] | 3000 to 10000
O=C1CC[C@H](/C=C(\c2ccc(S(=O)(=O)C3CC3)c(Cl)c2)c2ccc(C3CC3)c(=O)[nH]2)N1 [Example 4-289, 6-{(E)-1-[3-Chloro-4-(cyclopropylsulfonyl)phenyl]-2-[(2R)-5-oxopyrrolidin-2-yl]ethenyl}-3-cyclopropylpyridin-2(1H)-one] | 10 to 500

The next lines start with the values.

EC50 [nM] | Compound
10 to 500 | O=C1CC[C@H](/C=C(\c2ccc(S(=O)(=O)C3CC3)cc2)c2ccc(C3CC3)c(=O)[nH]2)N1 [Example 4-290, 3-Cyclopropyl-6-{(E)-1-[4-(cyclopropylsulfonyl)phenyl]-2-[(2R)-5-oxopyrrolidin-2-yl]ethenyl}pyridin-2(1H)-one]
10 to 500 | O=C1CC[C@H](/C=C(\c2ccc(S(=O)(=O)Cc3ccccc3)cc2)c2ccc(C3CC3)c(=O)[nH]2)N1 [Example 4-291, 6-{(E)-1-[4-(Benzylsulfonyl)phenyl]-2-[(2R)-5-oxopyrrolidin-2-yl]ethenyl}-3-cyclopropylpyridin-2(1H)-one]
10 to 500 | CN(C)S(=O)(=O)c1ccc(/C(=C\[C@H]2CCC(=O)N2)c2ccc(C3CC3)c(=O)[nH]2)cc1 [Example 4-292, 4-{(E)-1-(5-Cyclopropyl-6-oxo-1,6-dihydropyridin-2-yl)-2-[(2R)-5-oxopyrrolidin-2-yl]ethenyl}-N,N-dimethylbenzenesulfonamide]
10 to 500 | O=C1CC[C@H](/C=C(\c2ccc(S(=O)(=O)Cc3ccccc3)c(Cl)c2)c2ccc(C3CC3)c(=O)[nH]2)N1 [Example 4-293, 6-{(E)-1-[4-(Benzylsulfonyl)-3-chlorophenyl]-2-[(2R)-5-oxopyrrolidin-2-yl]ethenyl}-3-cyclopropylpyridin-2(1H)-one]
10 to 500 | CC(C)(C)c1ccc(C(C[C@H]2CCC(=O)N2)c2ccc(C3CC3)c(=O)[nH]2)cc1 (stereo partly drawn) [Example 4-358, 6-{1-(4-tert-Butylphenyl)-2-[(2R)-5-oxopyrrolidin-2-yl]ethyl}-3-cyclopropylpyridin-2(1H)-one]
10 to 500 | O=C1CC[C@H](/C=C(\c2ccc(Cl)cc2)c2ccc(-c3cn[nH]c3)c(=O)[nH]2)N1 [Example 4-359, 6-{(E)-1-(4-Chlorophenyl)-2-[(2R)-5-oxopyrrolidin-2-yl]ethenyl}-3-(1H-pyrazol-4-yl)pyridin-2(1H)-one]
10 to 500 | O=C1CC[C@H](/C=C(\c2ccc(C(F)(F)F)cc2)c2ccc(-c3cn[nH]c3)c(=O)[nH]2)N1 [Example 4-360, 6-{(E)-2-[(2R)-5-Oxopyrrolidin-2-yl]-1-[4-(trifluoromethyl)phenyl]ethenyl}-3-(1H-pyrazol-4-yl)pyridin-2(1H)-one]

— US8822503B2, “2-pyridone compounds” (Taisho Pharmaceutical Co., Ltd, priority 2009, dated 2014)
